Assay results from patent publication US20130102009A1, “SIRTUIN ACTIVATORS AND ACTIVATION ASSAYS” (priority 2010, published 2013).
Entries after “also recorded” stand apart in the source; their conditions may differ. Counter-ions that a name gives are not always drawn.

Tests used:
SIRT1 = molecular target: T1, SIRT1 (Homo sapiens, UniProt Q96EB6); test: Mass spectrometry based SIRT1 activation assay (TAMRA/5TMR-labeled 20mer peptide); type: biochemical; conditions: for Emax: 25 min, percent maximum fold activation of SIRT1, read-out: % FOLD ACT.; for EC1.5 uM: concentration that results in 150% activation of SIRT1
T1 sequence (Q96EB6 1-747): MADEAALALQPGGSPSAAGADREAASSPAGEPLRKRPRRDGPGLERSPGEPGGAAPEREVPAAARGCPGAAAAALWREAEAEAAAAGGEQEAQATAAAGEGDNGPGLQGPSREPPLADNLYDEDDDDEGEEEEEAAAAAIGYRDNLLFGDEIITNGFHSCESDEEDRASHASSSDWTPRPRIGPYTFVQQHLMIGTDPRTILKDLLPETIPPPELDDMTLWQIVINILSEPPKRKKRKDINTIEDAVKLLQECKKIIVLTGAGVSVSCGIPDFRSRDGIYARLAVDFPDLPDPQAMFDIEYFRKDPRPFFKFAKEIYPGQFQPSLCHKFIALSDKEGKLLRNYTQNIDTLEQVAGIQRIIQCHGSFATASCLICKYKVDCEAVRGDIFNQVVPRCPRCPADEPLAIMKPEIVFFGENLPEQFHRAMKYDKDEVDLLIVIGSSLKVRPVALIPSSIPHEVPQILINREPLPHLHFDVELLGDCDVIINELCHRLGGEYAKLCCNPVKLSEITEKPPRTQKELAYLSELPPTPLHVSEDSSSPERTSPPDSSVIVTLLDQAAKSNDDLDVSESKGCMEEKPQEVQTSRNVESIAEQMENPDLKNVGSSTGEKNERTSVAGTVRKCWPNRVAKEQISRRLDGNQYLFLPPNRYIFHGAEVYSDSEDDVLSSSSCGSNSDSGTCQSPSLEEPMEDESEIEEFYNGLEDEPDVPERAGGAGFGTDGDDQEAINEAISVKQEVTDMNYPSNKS
From the text: A mass spectrometry based assay was used to identify modulators of SIRTI activity. The mass spectrometry based assay utilizes a peptide having 20 amino acid residues as follows: Ac-EE-K(biotin)-GQSTSSHSK(Ac)NleSTEG-K(5TMR)-EE-NH2 (SEQ ID NO: 1) wherein K(Ac) is an acetylated lysine residue and Nle is a norleucine. The peptide is labeled with the fluorophore 5TMR (excitation 540 nrnIemission 580 nm) at the C-terminus. The sequence of the peptide substrate is based on p53 with several modifications. In addition, the methionine residue naturally present in the sequence was replaced with the norleucine because the methionine may be susceptible to oxidation during synthesis and purification.
The mass spectrometry assay is conducted as follows: 0.5 J-1M peptide substrate and 120 μM βNAD^+ is incubated with 10 nM SIRT1 for 25 minutes at 25° C. in a reaction buffer (50 mM Tris-acetate pH 8, 137 mM NaCl, 2.7 mM KCl, 1 mM MgClz, 5 mM DTT, 0.05% BSA). Test compounds may be added to the reaction as described above. The SirTI gene is cloned into a T7-promoter containing vector and transformed into BL21 (DE3). After the 25 minute incubation with SIRT1, 10 μL of 10% formic acid is added to stop the reaction. Reactions are sealed and frozen for later mass spec analysis. Determination of the mass of the substrate peptide allows for precise determination of the degree of acetylation (i.e. starting material) as compared to deacetylated peptide (product).
A control for inhibition of sirtuin activity is conducted by adding 1 μL of 500 mM nicotinamide as a negative control at the start of the reaction (e.g., permits determination of maximum sirtuin inhibition). A control for activation of sirtuin activity is conducted using 10 nM of sirtuin protein, with 1 μL of DMSO in place of compound, to determine the amount of deacetylation of the substrate at a given timepoint within the linear range of the assay. This timepoint is the same as that used for test compounds and, within the linear range, the endpoint represents a change in velocity.
For the above assay, SIRTI protein was expressed and purified as follows. The SirT1 gene was cloned into a T7-promoter containing vector and transformed into BL21(DE3). The protein was expressed by induction with 1 mM IPTG as an N-terminal His-tag fusion protein at 18° C. overnight and harvested at 30,000×g. Cells were lysed with lysozyme in lysis buffer (50 mM Tris-HCl, 2 mM Tris[2-carboxyethyl]phosphine (TCEP), 10 μM ZnCl2, 200 mM NaCl) and further treated with sonication for 10 min for complete lysis. The protein was purified over a Ni-NTA column (Amersham) and fractions containing pure protein were pooled, concentrated and run over a sizing column (Sephadex S200 26/60 global). The peak containing soluble protein was collected and run on an Ion-exchange column (MonoQ). Gradient elution (200 mM-500 mM NaCl) yielded pure 20 protein. This protein was concentrated and dialyzed against dialysis buffer (20 mM TrisHCl, 2 mM TCEP) overnight. The protein was aliquoted and frozen at −80° C. until further use.
Sirtuin modulating compounds that activated SIRT1 were identified using the assay described above and are shown below in Table 4. The EC1.5 values represent the concentration of test compounds that result in 150% activation of SIRT1. The EC1.5 values for the activating compounds are represented by A (EC1.5≦1 μM), B (EC1.5>1 μM). The percent maximum fold activation is represented by A (Fold activation ≧200%) or B (Fold Activation <200%).

TAMRA-peptide = test: ITC binding of STACs to TAMRA-peptide; conditions: 26° C.; for Kd: pH 7.3, read-out: Kd for the binding of activator to TAMRA-peptide
Experimental: ITC experiments were performed using either a VP-ITC system or iTC200 system (MicroCal) at 26° C. in a buffer composed of 137 mM NaCl, 2.7 mM KCl, 1 mM MgCl2, 2 mM TCEP, 5% (v/v) glycerol and 50 mM HEPES-NaOH, pH 7.3. SIRT1(183-664) was purified and dialyzed against the buffer, centrifuged, and degassed before the experiment. The peptide and compounds were dissolved in the final dialysis buffer and their pH values were adjusted to match that of the protein solution. […] To characterize this interaction using the iTC200 system, 1 mM TAMRA-peptide was injected in 20 aliquots of 2 μL, (except the first injection, which was 0.5 μL) into a 0.202 mL sample cell containing 100 μM STAC. For STACs with poor solubility, the concentrations were adjusted accordingly. […] In all cases, data was corrected for the heat of dilution and fitted using a nonlinear least-squares routine using a single-site binding model with Origin for ITC v7.0383 (Microcal) with the stoichiometry (n), the enthalpy of the reaction (ΔH) and the association constant (Ka) calculated.

CN(C)CCCNc1cc(-c2nc3c(NC(=O)c4ccc(CN5CCNCC5)cc4)cccc3[nH]2)ccn1 [Compound 14, N-(2-(2-(3-(dimethylamino)propylamino)pyridin-4-yl)-1H-benzo[d]imidazol-4-yl)-4-(piperazin-1-ylmethyl)benzamide trihydrochloride]
Emax (SIRT1): ≥ 200% | EC1.5 uM (SIRT1): A (EC1.5≦1 μM)

CCCCc1nc(NC2CCNCC2)cc(C(=O)Nc2ccccc2-c2nc3cc(COC4CCNCC4)cnc3s2)n1 [Compound 10, 2-butyl-6-(piperidin-4-ylamino)-N-(2-(6-((piperidin-4-yloxy)methyl)thiazolo[5,4-b]pyridin-2-yl)phenyl)pyrimidine-4-carboxamide]
Emax (SIRT1): ≥ 200% | EC1.5 uM (SIRT1): A (EC1.5≦1 μM) | Kd (TAMRA-peptide): 2.5 µM

CN(C)Cc1cnc2sc(-c3ccccc3NC(=O)c3cnc4ccccc4n3)nc2c1 [Compound 2, N-(2-(6-((dimethylamino)methyl)thiazolo[5,4-b]pyridin-2-yl)phenyl)quinoxaline-2-carboxamide]
Emax (SIRT1): < 200% | EC1.5 uM (SIRT1): B (EC1.5>1 μM)

Cc1nc(-c2cccnc2)sc1C(=O)Nc1ccccc1-c1cn2c(CN3CC4CC3CN4)csc2n1 (stereo not drawn) [Compound 4, N-(2-(3-(2,5-diazabicyclo[2.2.1]heptan-2-ylmethyl)imidazo[2,1-b]thiazol-6-yl)phenyl)-4-methyl-2-(pyridin-3-yl)thiazole-5-carboxamide]
Emax (SIRT1): ≥ 200% | EC1.5 uM (SIRT1): A (EC1.5≦1 μM) | Kd for the binding of activator to TAMRA-peptide (TAMRA-peptide; pH 7.3): no detectable binding; also recorded: lack of binding | Kd (TAMRA-peptide): > 100 µM

COc1cc(C(=O)Nc2ccccc2-c2cn3c(CN4CCNCC4)csc3n2)cc(OC)c1OC [SRT1460]
Kd (TAMRA-peptide): 140 µM
